Experimental data from patent US7612200B2, “Inhibitors of protein kinases” (Locus Pharmaceuticals, Inc., priority 2004, dated 2009).

Tests used:
Assay type in all cases: biochemical
DDR2 = DDR2 (Homo sapiens, UniProt Q16832); test: Protein kinase inhibition, DDR2; settings: Rate (μM) 2, read-out: % Control
FGFR1 = FGFR1 (Homo sapiens, UniProt P11362); test: Protein kinase inhibition, FGFR1; settings: Rate (μM) 2, read-out: % Control
Flt3 = target: T1, Flt3 (Homo sapiens, UniProt P36888); test: Flt3 Kinase Activity
T1 sequence (P36888 27-993): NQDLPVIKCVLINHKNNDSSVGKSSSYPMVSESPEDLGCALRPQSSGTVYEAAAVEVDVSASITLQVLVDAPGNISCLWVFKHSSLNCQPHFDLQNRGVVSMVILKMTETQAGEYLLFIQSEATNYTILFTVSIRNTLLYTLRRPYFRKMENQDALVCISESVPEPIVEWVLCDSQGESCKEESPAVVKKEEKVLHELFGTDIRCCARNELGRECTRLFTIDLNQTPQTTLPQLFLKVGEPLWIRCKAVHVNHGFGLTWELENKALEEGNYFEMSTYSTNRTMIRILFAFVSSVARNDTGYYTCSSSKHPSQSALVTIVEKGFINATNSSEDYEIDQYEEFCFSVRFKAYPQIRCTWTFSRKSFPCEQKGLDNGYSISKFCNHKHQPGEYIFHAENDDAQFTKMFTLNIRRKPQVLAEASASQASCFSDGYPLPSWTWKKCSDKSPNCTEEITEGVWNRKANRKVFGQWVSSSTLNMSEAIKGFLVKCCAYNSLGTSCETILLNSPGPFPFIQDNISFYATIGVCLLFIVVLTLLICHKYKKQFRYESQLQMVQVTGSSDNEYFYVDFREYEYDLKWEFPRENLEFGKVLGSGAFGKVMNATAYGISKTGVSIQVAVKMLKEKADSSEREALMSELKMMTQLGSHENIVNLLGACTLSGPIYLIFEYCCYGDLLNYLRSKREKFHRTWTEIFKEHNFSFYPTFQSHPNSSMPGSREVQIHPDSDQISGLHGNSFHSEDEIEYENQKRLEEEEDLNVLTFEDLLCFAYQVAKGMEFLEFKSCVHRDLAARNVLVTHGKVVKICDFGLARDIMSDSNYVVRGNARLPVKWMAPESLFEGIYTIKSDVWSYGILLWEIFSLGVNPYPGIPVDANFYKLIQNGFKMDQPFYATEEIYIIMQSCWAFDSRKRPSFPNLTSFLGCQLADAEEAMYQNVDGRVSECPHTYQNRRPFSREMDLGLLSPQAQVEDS
Experimental: Flt3 Kinase Activity: In a final reaction volume of 25 μl, Flt3 (h) (5-10 mU) is incubated with 8 mM MOPS pH 7.0, 0.2 mM EDTA, 50 μM EAIYAAPFAKKK, 10 mM MgAcetate and [γ-^33P-ATP] (specific activity approx. 500 cpm/pmol, concentration as required). The reaction is initiated by the addition of the MgATP mix. After incubation for 40 minutes at room temperature, the reaction is stopped by the addition of […] of a 3% phosphoric acid solution. […] of the reaction is then spotted onto a P30 filtermat and washed three times for 5 minutes in 75 mM phosphoric acid and once in methanol prior to drying and scintillation counting.

Lyn [1] = target: Lyn (Mus musculus, UniProt P25911); test: Protein kinase inhibition, Lyn (mouse); settings: Rate (μM) 2, read-out: % Control
Chain of Lyn (Mus musculus, UniProt P25911) (P25911 whole entry): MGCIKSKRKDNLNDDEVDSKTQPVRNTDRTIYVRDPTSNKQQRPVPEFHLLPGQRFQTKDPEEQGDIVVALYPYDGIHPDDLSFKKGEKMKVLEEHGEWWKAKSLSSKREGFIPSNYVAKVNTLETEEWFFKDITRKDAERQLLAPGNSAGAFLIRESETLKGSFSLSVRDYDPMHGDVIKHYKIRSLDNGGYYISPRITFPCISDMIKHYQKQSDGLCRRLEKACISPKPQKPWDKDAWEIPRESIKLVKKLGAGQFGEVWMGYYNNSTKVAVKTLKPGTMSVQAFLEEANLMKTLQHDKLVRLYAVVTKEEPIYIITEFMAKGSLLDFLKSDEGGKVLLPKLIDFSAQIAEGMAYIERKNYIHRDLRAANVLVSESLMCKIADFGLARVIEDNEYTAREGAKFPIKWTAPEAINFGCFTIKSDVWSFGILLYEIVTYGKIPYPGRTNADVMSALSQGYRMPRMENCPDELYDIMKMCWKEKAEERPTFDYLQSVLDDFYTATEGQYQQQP

p38δ = p38δ (Homo sapiens, UniProt O15264); test: SAPK4 Kinase Activity (p38δ)
Chain of p38δ (O15264 whole entry): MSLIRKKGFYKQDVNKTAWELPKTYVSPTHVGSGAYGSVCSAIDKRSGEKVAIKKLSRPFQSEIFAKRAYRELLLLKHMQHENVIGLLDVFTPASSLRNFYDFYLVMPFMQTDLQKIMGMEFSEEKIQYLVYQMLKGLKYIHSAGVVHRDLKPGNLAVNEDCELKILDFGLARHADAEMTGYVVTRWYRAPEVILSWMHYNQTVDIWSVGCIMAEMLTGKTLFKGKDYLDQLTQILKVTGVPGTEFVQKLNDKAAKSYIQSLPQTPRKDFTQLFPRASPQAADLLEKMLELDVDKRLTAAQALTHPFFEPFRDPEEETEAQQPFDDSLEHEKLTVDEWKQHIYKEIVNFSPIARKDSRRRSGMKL
Experimental: SAPK4 Kinase Activity: In a final reaction volume of 25 μl, SAPK4 (h) (5-10 mU) is incubated with 25 mM Tris pH 7.5, 0.02 mM EGTA, 0.33 mg/ml myelin basic protein, 10 mM MgAcetate and [γ-^33P-ATP] (specific activity approx. 500 cpm/pmol, concentration as required). The reaction is initiated by the addition of the MgATP mix. After incubation for 40 minutes at room temperature, the reaction is stopped by the addition of 5 μl of a 3% phosphoric acid solution. 10 μL of the reaction is the spotted onto a P30 filtermat and washed three times for 5 minutes in 75 mM phosphoric acid and once in methanol prior to drying and scintillation counting.

Lyn [2] = target: Lyn (Homo sapiens, UniProt P07948); test: Lyn Kinase Activity; settings: compound at 2 μm
Chain of Lyn (Homo sapiens, UniProt P07948) (P07948 whole entry): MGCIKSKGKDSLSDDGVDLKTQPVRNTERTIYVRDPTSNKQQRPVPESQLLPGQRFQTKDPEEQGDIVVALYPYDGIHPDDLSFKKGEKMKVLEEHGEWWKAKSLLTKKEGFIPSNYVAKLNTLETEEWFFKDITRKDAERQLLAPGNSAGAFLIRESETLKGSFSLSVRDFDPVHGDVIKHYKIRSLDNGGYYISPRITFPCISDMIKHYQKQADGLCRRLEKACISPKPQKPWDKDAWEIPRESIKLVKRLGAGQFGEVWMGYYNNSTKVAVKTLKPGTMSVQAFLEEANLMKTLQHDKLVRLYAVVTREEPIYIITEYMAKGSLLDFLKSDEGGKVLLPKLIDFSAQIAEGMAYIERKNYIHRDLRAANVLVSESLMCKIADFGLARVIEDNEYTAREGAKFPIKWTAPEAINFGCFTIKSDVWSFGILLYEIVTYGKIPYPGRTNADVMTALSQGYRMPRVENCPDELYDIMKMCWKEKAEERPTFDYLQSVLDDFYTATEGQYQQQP
Experimental: Lyn Kinase Activity: In a final reaction volume of 25 μl, Lyn (h) (5-10 mU) is incubated with 50 mM Tris pH 7.5, 0.1 mM EGTA, 0.1 mM Na3VO4, 0.1% β-mercaptoethanol, 0.1 mg/ml poly(Glue, Tyr) 4:1, 10 mM MgAcetate and [γ-^33P-ATP] (specific activity approx. 500 cpm/pmol, concentration as required). The reaction is initiated by the addition of the MgATP mix. After incubation for 40 minutes at room temperature, the reaction is stopped by the addition of 5 μl of a 3% phosphoric acid solution. 10 μl of the reaction is then spotted onto a Filtermat A and washed three times for 5 minutes in 75 mM phosphoric acid and once in methanol prior to drying and scintillation counting.

Chain of FGFR1 (P11362 22-822): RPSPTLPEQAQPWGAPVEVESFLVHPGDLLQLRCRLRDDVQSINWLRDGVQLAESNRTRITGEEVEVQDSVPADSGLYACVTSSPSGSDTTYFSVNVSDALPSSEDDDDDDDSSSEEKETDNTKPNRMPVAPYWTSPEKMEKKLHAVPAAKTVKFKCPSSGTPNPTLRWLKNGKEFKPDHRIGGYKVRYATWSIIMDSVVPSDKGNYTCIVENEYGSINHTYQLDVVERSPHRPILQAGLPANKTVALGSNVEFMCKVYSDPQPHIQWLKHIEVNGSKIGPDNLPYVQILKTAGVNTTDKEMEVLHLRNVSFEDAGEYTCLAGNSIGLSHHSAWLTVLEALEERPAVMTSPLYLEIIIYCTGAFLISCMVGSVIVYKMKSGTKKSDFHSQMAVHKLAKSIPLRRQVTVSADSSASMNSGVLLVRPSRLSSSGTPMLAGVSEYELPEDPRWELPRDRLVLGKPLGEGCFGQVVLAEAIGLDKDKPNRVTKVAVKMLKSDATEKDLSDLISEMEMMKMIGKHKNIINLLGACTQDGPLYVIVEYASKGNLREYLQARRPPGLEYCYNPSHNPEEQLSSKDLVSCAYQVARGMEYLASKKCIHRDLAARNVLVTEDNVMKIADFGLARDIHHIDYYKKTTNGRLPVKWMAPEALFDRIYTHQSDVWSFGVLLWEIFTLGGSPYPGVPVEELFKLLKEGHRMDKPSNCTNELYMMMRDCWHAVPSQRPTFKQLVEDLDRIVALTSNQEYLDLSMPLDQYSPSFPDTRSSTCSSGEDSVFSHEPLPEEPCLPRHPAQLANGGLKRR
Chain of DDR2 (Q16832 22-855): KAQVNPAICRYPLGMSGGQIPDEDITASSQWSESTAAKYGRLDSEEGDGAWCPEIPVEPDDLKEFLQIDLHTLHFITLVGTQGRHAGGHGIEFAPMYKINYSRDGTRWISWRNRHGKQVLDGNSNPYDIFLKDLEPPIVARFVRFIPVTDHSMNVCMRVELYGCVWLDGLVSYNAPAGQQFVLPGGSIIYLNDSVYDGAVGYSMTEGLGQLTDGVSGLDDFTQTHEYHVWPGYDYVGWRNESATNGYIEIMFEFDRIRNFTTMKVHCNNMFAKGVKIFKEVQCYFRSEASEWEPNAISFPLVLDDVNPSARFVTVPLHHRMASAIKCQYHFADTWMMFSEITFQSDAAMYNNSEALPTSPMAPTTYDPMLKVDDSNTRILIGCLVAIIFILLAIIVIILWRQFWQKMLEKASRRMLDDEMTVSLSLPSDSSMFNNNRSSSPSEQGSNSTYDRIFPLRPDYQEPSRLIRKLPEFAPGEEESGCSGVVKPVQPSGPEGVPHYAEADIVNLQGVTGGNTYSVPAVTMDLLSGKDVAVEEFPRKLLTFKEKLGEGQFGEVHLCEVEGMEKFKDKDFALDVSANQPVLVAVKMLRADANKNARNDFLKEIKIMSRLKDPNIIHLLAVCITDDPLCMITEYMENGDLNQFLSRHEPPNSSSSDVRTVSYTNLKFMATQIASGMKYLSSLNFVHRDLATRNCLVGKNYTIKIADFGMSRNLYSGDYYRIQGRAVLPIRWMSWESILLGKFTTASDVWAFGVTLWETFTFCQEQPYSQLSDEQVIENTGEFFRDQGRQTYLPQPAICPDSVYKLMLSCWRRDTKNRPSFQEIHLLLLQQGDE

## CC(C)(C)c1cc(C(=O)N2CCS(=O)(=O)CC2)c(NC(=O)Nc2ccc(Oc3ccncc3)cc2)s1 [Example 3, 1-[5-tert-Butyl-3-(1,1-dioxo-1λ^6-thiomorpholine-4-carbonyl)thiophen-2-yl]-3-[4-(pyridin-4-yloxy)phenyl]urea]
DDR2
  remaining activity at 2 µM: 76 to 100%
FGFR1
  remaining activity at 2 µM: 76 to 100%
Flt3; 40 min, Flt3, Human, Rate (μM) 2, read-out: % Control
  remaining activity at 2 µM: 76 to 100%
Flt3; Flt3, compound at 2 μm
  % Inhibition at 2 μm: 76-100%
Lyn [1]
  remaining activity at 2 µM: 76 to 100%
p38δ; 40 min, P38d, Human, Rate (μM) 2, read-out: % Control
  remaining activity at 2 µM: 76 to 100%
p38δ; p38δ, compound at 2 μm
  % Inhibition at 2 μm: 76-100%
Lyn [2]
  % Inhibition at 2 μm: 76-100%
